Assay results taken from ChEMBL document CHEMBL5390243, “Catecholamine Derivatives: Natural Occurrence, Structural Diversity, and Biological Activity” (J Nat Prod, 2023).
≈ marks a conversion by molar mass, not a printed value.

Tests used:
RAW264.7 [1] = assay: Anti-inflammatory activity against mouse RAW264.7 cells assessed as inhibition of LPS-induced NO production at 100 ng/ml pretreated with compound for 2 hrs followed by LPS stimulation and measured after 24 hrs by Griess reagent based analysis; assay type: functional; set-up: scale not given: the % may be the effect or the level left; details: time 26 hrs
RAW264.7 [2] = assay: Antiinflammatory activity against LPS-induced mouse RAW264.7 cells assessed as reduction in IL-6 mRNA expression at 10 uM by RT-PCR analysis; assay type: functional; set-up: scale not given: the % may be the effect or the level left
[3] = Antioxidant activity assessed as DPPH radical scavenging activity incubated for 20 mins by spectrophotometric method; assay type: functional
Cholinesterase = Cholinesterase (Homo sapiens, UniProt P06276); assay: Inhibition of butyrylcholinesterase (unknown origin)
Helicoverpa armigera = assay: Antifeedant activity against Helicoverpa armigera at 100 uM relative to control; assay type: functional
Acetylcholinesterase [4] = target: T1, Acetylcholinesterase (Homo sapiens, UniProt P22303); assay: Inhibition of AChE (unknown origin) by Ellman's method
MCF7 = assay: Cytotoxicity against human MCF7 cells assessed as reduction in cell viability measured after 24 hrs by MTT assay; assay type: functional, cell-based; details: MCF7, 24 h
Acetylcholinesterase [5] = target: T1, Acetylcholinesterase; assay: Inhibition of Acetylcholinesterase (unknown origin) using acetylthiocholine iodide as substrate incubated for 20 mins by Ellaman's method
[6] = target: Casein kinase I isoform delta (Homo sapiens, UniProt P48730); assay: Inhibition of N-terminal GST-tagged human recombinant CK1delta (1 to 294 residues) expressed in Escherichia coli incubated for 60 mins in presence of ATP by Kinase-glo luminescent assay
[7] = target: Cyclin-dependent kinase 5/CDK5 activator 1 (Homo sapiens, UniProt Q00535); assay: Inhibition of N-terminal full length human recombinant CDK5/p25 expressed in baculovirus-infected Sf21 cells incubated for 60 mins in presence of ATP by kinase-glo luminescent assay
[8] = target: Glycogen synthase kinase-3 beta (Homo sapiens, UniProt P49841); assay: Inhibition of N-terminal His6-tagged human recombinant GSK3beta expressed in baculovirus-infected Sf21 cells incubated for 60 mins in presence of ATP by ADP-glo analysis
[9] = Metal chelating activity assessed as iron chelation by CAS assay
[10] = Antioxidant activity assessed as DPPH radical scavenging activity measured after 30 mins by UV-visible spectrophotometric analysis; assay type: functional
[11] = Antioxidant activity assessed as ABTS radical scavenging activity incubated for 30 mins by UV-visible spectrphotometric analysis; assay type: functional
[12] = target: Beta-1 adrenergic receptor (Homo sapiens) (UniProt P08588); assay: Agonist activity at ARbeta1 (unknown origin) expressed in CHO-K1 cells co-expressing G alpha 15 assessed as inhibition of isoproterenol induced calcium response upto 100 uM incubated for 10 mins by calcium mobilization assay relative to control; assay type: functional, cell-based; set-up: Activity: scale not given: the % may be the effect or the level left
Acetylcholinesterase [13] = target: T1, Acetylcholinesterase; assay: Inhibition of human AchE using acetylthiocholine iodide as substrate incubated for 20 mins by Ellman's assay; details: read-out: EC50 (the source's name)
[14] = Antioxidant activity assessed as DPPH radical scavenging activity; assay type: functional
[15] = Immunosuppressive activity in Kunming mouse splenocyte assessed as reduction in ConA-stimulated T-lymphocytes proliferation at 20 uM incubated for 72 hrs by CCK-8 assay relative to control; assay type: functional, T-cell; set-up: scale not given: the % may be the effect or the level left
[16] = target: Tyrosine-protein kinase JAK3 (Homo sapiens, UniProt P52333); assay: Inhibition of JAK3 (unknown origin) preincubated for 1 hr followed by substrate addition and measured after 1 hr in the presence of ATP by FRET-based Z'-Lyte assay
RAW264.7 [17] = assay: Anti-inflammatory activity against mouse RAW264.7 cells assessed as inhibition of LPS-induced nitric oxide production at 50 uM preincubated for 2 hrs with compound followed by LPS-stimulation and measured after 24 hrs by Griess reagent based analysis; assay type: functional, cell-based

Chain of Glycogen synthase kinase-3 beta (P49841 whole entry): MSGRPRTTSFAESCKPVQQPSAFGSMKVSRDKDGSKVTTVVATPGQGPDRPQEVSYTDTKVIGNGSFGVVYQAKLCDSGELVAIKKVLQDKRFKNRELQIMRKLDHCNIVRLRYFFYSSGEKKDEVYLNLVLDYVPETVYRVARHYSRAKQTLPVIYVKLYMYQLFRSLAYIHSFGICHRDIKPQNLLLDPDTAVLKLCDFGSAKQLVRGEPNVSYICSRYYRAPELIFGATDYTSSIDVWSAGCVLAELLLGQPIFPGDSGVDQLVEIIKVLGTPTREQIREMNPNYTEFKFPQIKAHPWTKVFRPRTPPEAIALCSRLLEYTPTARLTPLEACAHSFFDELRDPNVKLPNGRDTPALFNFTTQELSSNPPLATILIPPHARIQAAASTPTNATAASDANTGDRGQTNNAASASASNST
T1 sequence (P22303 whole entry): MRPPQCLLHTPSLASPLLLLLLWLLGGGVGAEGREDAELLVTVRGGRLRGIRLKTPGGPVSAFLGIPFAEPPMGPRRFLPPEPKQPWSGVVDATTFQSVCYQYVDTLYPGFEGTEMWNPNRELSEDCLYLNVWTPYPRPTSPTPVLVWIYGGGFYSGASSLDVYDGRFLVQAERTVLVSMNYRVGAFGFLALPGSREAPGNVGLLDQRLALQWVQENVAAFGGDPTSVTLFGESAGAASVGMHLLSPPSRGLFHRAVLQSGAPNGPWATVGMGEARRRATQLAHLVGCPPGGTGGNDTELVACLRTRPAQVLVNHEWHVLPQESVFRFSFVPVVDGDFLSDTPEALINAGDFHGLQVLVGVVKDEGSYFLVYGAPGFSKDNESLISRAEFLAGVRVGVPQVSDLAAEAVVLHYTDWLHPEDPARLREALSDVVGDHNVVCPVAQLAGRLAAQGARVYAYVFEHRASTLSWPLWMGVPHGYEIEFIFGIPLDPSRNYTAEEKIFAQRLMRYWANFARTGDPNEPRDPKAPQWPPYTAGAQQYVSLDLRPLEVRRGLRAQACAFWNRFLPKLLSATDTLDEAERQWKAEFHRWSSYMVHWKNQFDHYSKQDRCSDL
Chain of Casein kinase I isoform delta (P48730 whole entry, the tested form may be a part, canonical isoform): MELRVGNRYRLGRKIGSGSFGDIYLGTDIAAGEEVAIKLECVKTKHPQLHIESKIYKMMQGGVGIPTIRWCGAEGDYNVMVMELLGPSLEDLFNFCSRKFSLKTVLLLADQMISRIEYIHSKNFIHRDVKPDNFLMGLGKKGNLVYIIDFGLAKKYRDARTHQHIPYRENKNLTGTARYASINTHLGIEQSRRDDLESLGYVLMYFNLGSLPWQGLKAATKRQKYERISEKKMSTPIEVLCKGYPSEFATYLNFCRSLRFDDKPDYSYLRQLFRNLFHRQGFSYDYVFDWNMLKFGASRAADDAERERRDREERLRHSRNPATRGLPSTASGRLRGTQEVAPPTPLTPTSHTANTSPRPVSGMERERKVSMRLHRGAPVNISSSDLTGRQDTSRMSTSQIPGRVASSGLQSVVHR
Chain of Cyclin-dependent kinase 5/CDK5 activator 1 (Q00535 whole entry): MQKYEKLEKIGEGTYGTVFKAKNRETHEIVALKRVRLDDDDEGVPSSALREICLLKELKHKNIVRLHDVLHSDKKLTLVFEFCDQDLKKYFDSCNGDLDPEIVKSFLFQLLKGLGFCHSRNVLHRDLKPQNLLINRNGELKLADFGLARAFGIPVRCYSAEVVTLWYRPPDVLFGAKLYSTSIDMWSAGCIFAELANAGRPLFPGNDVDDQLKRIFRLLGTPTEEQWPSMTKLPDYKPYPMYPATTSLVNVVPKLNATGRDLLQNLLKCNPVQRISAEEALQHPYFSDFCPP
Chain of Cyclin-dependent kinase 5/CDK5 activator 1 (Q15078 whole entry, further chain): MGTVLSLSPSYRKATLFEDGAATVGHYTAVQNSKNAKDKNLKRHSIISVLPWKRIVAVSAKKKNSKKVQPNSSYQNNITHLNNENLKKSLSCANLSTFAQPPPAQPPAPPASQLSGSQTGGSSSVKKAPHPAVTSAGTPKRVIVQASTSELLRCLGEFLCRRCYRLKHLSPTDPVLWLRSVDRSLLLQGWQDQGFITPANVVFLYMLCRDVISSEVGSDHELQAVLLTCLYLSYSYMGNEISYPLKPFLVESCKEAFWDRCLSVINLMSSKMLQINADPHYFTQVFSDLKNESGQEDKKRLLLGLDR
Chain of Cholinesterase (P06276 whole entry): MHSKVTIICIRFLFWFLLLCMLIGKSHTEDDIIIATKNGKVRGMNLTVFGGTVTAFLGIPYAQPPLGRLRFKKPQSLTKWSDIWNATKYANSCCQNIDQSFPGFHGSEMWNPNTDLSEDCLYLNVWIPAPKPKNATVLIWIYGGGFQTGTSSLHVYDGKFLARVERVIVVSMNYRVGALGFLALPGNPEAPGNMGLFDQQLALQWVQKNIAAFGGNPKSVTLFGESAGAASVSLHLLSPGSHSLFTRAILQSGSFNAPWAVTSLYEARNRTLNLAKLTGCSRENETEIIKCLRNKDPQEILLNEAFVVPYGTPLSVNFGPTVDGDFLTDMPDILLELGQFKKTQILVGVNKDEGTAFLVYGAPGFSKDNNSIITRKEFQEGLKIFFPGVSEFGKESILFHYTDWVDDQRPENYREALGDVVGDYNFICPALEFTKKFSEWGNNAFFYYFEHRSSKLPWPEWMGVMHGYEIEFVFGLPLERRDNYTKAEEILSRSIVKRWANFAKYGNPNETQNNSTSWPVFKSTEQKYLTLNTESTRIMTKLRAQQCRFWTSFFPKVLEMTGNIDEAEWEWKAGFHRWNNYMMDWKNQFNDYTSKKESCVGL
Chain of Beta-1 adrenergic receptor (Homo sapiens) (P08588 whole entry, looked up): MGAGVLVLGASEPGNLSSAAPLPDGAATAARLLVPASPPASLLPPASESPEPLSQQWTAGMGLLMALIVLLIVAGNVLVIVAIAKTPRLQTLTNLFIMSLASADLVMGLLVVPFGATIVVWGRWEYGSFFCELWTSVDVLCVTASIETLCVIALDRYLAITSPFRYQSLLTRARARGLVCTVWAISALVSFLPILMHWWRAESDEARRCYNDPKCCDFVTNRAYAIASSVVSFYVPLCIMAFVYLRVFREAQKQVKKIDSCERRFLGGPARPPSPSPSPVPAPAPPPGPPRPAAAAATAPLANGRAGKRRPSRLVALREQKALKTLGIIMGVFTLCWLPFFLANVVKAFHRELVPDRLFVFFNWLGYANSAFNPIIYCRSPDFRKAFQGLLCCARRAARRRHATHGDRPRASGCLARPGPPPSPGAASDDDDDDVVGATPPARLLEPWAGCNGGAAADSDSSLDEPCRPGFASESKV
Chain of Tyrosine-protein kinase JAK3 (P52333 whole entry): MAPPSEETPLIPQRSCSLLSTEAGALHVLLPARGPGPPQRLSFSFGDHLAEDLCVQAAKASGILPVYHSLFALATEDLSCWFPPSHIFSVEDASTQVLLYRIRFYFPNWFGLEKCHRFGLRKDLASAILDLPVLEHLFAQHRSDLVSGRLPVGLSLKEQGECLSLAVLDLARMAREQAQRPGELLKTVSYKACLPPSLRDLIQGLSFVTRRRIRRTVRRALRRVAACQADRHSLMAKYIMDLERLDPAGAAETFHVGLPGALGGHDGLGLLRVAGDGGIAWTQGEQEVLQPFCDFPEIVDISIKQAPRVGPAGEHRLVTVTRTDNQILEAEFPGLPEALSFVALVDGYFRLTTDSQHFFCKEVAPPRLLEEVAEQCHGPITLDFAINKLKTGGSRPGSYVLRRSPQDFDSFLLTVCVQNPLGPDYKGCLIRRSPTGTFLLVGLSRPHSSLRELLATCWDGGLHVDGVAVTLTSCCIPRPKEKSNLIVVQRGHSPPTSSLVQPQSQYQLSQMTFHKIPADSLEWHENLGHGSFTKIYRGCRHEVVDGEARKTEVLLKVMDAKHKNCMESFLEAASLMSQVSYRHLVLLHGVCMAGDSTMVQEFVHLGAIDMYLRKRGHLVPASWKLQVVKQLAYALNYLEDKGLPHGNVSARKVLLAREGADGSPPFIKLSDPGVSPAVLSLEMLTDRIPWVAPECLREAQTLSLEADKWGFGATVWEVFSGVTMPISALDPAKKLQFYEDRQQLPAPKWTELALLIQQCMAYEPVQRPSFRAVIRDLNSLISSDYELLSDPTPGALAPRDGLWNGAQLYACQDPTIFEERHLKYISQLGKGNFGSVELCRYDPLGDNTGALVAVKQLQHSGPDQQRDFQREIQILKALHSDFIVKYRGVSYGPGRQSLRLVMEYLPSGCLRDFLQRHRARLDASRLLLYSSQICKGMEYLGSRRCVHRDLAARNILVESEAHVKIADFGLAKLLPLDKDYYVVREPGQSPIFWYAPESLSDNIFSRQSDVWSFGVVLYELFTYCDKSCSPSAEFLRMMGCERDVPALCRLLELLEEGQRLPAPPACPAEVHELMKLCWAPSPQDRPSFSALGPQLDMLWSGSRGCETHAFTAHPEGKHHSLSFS

**Q.** For `O=C(/C=C/c1ccc(O)c(O)c1)OC[C@H]1O[C@@H](O[C@H]2[C@H](O)[C@@H](OC(=O)/C=C/c3ccc(O)c(O)c3)[C@H](OC[C@H]3O[C@@H](Oc4cc5c(cc4O)C[C@@H](C(=O)O)N5C(=O)/C=C/c4ccc(O)cc4)[C@H](O)[C@@H](O)[C@@H]3O)O[C@@H]2CO)[C@H](O)[C@@H](O)[C@@H]1O`, which Activity (RAW264.7 [1]) is on record?
**A.** 38.8%

**Q.** What about the Activity (RAW264.7 [2]) of the same molecule?
**A.** 74.2%

**Q.** For `COC(=O)[C@@H]1Cc2cc(O)c(O[C@@H]3O[C@H](CO)[C@@H](O)[C@H](O)[C@H]3O)cc2N1C(=O)/C=C/c1ccc(O)c(OC)c1`, which EC50 [3] is on record?
**A.** 21 µM

**Q.** What does the source list for `CO[C@H](CNC(=O)/C=C/c1ccc(O)cc1)c1ccc(O)c(O)c1`?
**A.** EC50 (Cholinesterase): 46.9 µM; Activity (Helicoverpa armigera): 61.6%; EC50 (Acetylcholinesterase [4]): 23.1 µM

**Q.** Which IC50 (MCF7) does the source give for `COCc1ccc(C=O)n1CCc1ccc(O)c(O)c1` here?
**A.** 11.6 µM

**Q.** For `O=Cc1ccc2n1CCc1cc(O)c(O)cc1C2`, which IC50 (Acetylcholinesterase [5]) is on record?
**A.** 58.4 µM

**Q.** With `O=C1C(c2ccc(O)c(O)c2)=C2C(=C(c3ccc(O)c(O)c3)C(=O)N2CCc2ccc(O)c(O)c2)c2cc(O)c(O)cc21` as the molecule, how does the IC50 [6] read?
**A.** < 0.2 µM

**Q.** And the IC50 [7]?
**A.** < 1.5 µM

**Q.** What about the IC50 [8] of the same molecule?
**A.** < 0.2 µM

**Q.** With `NC[C@H](CCCCNC(=O)c1cccc(O)c1O)NC(=O)c1cccc(O)c1O` as the molecule, how does the EC50 [9] read?
**A.** 4.6 µM

**Q.** With `O=C1O[C@H]([C@@H](O)CO)C(O)=C1O` [ASCORBIC ACID] as the molecule, how does the EC50 [10] read?
**A.** 9.72 µg/mL (≈ 55.2 µM)

**Q.** What about the EC50 [11] of the same molecule?
**A.** 4.89 µg/mL (≈ 27.8 µM)

**Q.** For `Oc1cc2c(cc1O)CCN=C2`, which Activity [12] is on record?
**A.** 24.2%

**Q.** Which IC50 (Acetylcholinesterase [13]) does the source give for `O=C(/C=C/c1ccc(O)cc1)n1ccc2cc(O)c(O)cc21` here?
**A.** 55.1 µM

**Q.** And the EC50 [14]?
**A.** 16.2 µM

**Q.** Which Activity [12] does the source give for `OCc1ccc(C2=NCCc3cc(O)c(O)cc32)o1` here?
**A.** 13.7%

**Q.** For `O=C(/C=C/c1ccc(O)cc1)n1ccc2cc(O)c(O[C@@H]3O[C@H](CO)[C@@H](O)[C@H](O)[C@H]3O)cc21`, which IC50 (Acetylcholinesterase [13]) is on record?
**A.** 58.8 µM

**Q.** With `CC(=O)NCCc1cc(O)c(O)cc1[C@H](NC(C)=O)C(=O)c1ccc(O)c(O)c1` as the molecule, how does the Activity [15] read?
**A.** 5%

**Q.** Which EC50 (Cholinesterase) does the source give for `O=C(/C=C/c1ccc(O)cc1)NCCc1ccc(O)c(O)c1` here?
**A.** 41.3 µM

**Q.** And the Activity (Helicoverpa armigera)?
**A.** 65.1%

**Q.** What about the EC50 (Acetylcholinesterase [4]) of the same molecule?
**A.** 16.9 µM

**Q.** With `O=C1C(c2ccc(O)c(O)c2)=c2c(c3c(n2CCc2ccc(O)c(O)c2)=C(c2ccc(O)c(O)c2)C(=O)c2cc(O)c(O)cc2-3)-c2cc(O)c(O)cc21` as the molecule, how does the IC50 [6] read?
**A.** < 0.3 µM

**Q.** What about the IC50 [7] of the same molecule?
**A.** < 0.5 µM

**Q.** What about the IC50 [8] of the same molecule?
**A.** < 0.2 µM

**Q.** Which IC50 (Acetylcholinesterase [5]) does the source give for `N[C@@H](CO)C(=O)O` [SERINE] here?
**A.** 38.3 µM

**Q.** With `COc1cc(O)c2c(c1)C(=O)c1cc(O)c(O)cc1CCN2` as the molecule, how does the IC50 (Acetylcholinesterase [5]) read?
**A.** 46 µM

**Q.** Which IC50 [16] does the source give for `Cc1cnc(-c2ccc(O)c(O)c2)c(C)n1` here?
**A.** 12.6 µM

**Q.** For `COC(=O)[C@@H]1Cc2cc(O)c(O[C@@H]3O[C@H](CO)[C@@H](O)[C@H](O)[C@H]3O)cc2N1C(=O)/C=C/c1ccc(O)cc1`, which EC50 [3] is on record?
**A.** 37.7 µM

**Q.** For `O=c1oc2cc(O)c(O)cc2c2c(-c3ccc(O)c(O)c3)cn(CCc3ccc(O)c(O)c3)c12`, which IC50 [6] is on record?
**A.** 1.5 µM

**Q.** And the IC50 [7]?
**A.** 2.6 µM

**Q.** What about the IC50 [8] of the same molecule?
**A.** 0.8 µM

**Q.** Which IC50 (RAW264.7 [17]) does the source give for `O=C(O)[C@@H]1Cc2cc(O)c(O[C@@H]3O[C@H](CO[C@@H]4O[C@H](CO)[C@@H](O)[C@H](O)[C@H]4O)[C@@H](O)[C@H](O)[C@H]3O)cc2N1C(=O)/C=C/c1ccc(O[C@@H]2O[C@H](CO)[C@@H](O)[C@H](O)[C@H]2O)cc1` here?
**A.** 53.1 µM
